For one assay, the target named is T1, BRAF V600E (Homo sapiens, UniProt P15056, V600E).
T1 construct: expressed in transfected cells
Kind of assay: Cellular assay of target protein degradation, T-Rex 293 cells stably transfected with HA-BRAF_V600E (HA immunofluorescence, high content imaging). The format is cell-based. The settings on record: T-Rex 293 HA-BRAF V600E; for DC50: half maximal degradation, read-out: BRaf V600E DC50; for Dmax: maximum degradation observed. The method, boiled down:
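Doxycycline-induced (1 ng/mL) cells were treated 24 h at 37 °C with compound at 1 μM to 0.1 nM final in 0.1% DMSO. After fixation, permeabilization and blocking, anti-HA staining was imaged by high-content reading; DC50 and Dmax (% of control) were derived.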

The next assay deals with T2, BRAF G466V (Homo sapiens, UniProt P15056, G466V).
T2 construct: expressed in transfected cells
T2 sequence (P15056 whole entry G466V): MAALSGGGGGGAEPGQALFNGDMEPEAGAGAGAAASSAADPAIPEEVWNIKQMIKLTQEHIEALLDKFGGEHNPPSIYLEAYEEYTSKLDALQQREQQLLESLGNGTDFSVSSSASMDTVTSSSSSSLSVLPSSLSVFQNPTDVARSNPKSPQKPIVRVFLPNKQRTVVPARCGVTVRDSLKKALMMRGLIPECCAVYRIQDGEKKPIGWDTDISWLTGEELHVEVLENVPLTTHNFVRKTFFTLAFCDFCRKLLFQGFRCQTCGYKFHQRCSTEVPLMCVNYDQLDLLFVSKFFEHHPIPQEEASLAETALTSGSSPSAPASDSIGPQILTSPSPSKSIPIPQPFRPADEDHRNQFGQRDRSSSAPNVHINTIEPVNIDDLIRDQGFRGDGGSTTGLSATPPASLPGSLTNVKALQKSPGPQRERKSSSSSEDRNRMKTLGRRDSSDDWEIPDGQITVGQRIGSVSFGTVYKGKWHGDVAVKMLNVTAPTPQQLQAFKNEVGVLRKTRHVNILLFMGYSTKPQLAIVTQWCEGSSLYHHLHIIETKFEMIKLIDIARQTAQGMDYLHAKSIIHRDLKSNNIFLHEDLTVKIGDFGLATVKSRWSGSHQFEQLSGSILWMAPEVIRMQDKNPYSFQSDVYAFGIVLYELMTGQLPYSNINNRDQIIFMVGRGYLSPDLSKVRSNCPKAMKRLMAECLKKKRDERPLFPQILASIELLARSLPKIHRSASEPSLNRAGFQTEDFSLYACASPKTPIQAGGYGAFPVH
Briefly: Cellular assay of target protein degradation, T-Rex 293 cells stably transfected with HA-BRAF G466V (HA immunofluorescence, high content imaging). The format is cell-based. The following applies: T-Rex 293 HA-BRAF G466V; for DC50: half maximal degradation, read-out: BRaf G466V DC50; for Dmax: maximum degradation observed. The gist of the method:
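Cells expressing doxycycline-induced (0.75 ng/mL) HA-BRAF G466V were treated with compound at 30 nM to 3 pM in 0.1% DMSO for 24 hours at 37° C. After fixation and permeabilization, HA was immunostained and quantified by high content imaging to derive DC50 and Dmax.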

T1 sequence (P15056 whole entry V600E): as the sequence (P15056 whole entry G466V) above, with V466G, V600E counted along it

The term DC50 denotes the midpoint of the concentration-degradation curve. One may read the Dmax as the largest share of the target that was removed. A low value points to a partial loss of target. Turning to `O=C1CCC(N2Cc3cc(N4CCC(CN5CCN(Cc6ncc(-c7cnc8[nH]cc(C(=O)c9c(F)ccc(NS(=O)(=O)N%10CC[C@@H](F)C%10)c9F)c8c7)cn6)CC5)CC4)ccc3C2=O)C(=O)N1` (stereo partly drawn) [Compound 153, (3R)-N-{3-[5-(2-{[4-({1-[2-(2,6-dioxopiperidin-3-yl)-1-oxo-2,3-dihydro-1H-isoindol-5-yl]piperidin-4-yl}methyl)piperazin-1-yl]methyl}pyrimidin-5-yl)-1H-pyrrolo[2,3-b]pyridine-3-carbonyl]-2,4-difluorophenyl}-3-fluoropyrrolidine-1-sulfonamide], the DC50 at BRAF V600E was 0.05 to 0.5 µM; on BRAF G466V, 0.001 to 0.01 µM. The Dmax on BRAF V600E and on BRAF G466V was over 70% each time.

Regarding `O=C1CCC(N2Cc3cc(N4CCC(CN5CCC(Cc6ccc(-c7cnc8[nH]cc(C(=O)c9c(F)ccc(NS(=O)(=O)N%10CC[C@@H](F)C%10)c9F)c8c7)cc6)CC5)CC4)ccc3C2=O)C(=O)N1` (stereo partly drawn) [Compound 154, (3R)-N-{3-[5-(4-{[1-({1-[2-(2,6-dioxopiperidin-3-yl)-1-oxo-2,3-dihydro-1H-isoindol-5-yl]piperidin-4-yl}methyl)piperidin-4-yl]methyl}phenyl)-1H-pyrrolo[2,3-b]pyridine-3-carbonyl]-2,4-difluorophenyl}-3-fluoropyrrolidine-1-sulfonamide], the DC50 on BRAF V600E is 0.005 to 0.05 µM; on BRAF G466V, under 0.001 µM. For the same compound, the Dmax was 35 to 70% on BRAF V600E and over 70% on BRAF G466V.

In the case of `CN(CC1CCN(c2ccc(-c3cnc4[nH]cc(C(=O)c5c(F)ccc(NS(=O)(=O)N6CC[C@@H](F)C6)c5F)c4c3)cc2)CC1)[C@H]1C[C@@H](Oc2ccc3c(c2)CN(C2CCC(=O)NC2=O)C3=O)C1` (stereo partly drawn) [Compound 155, (3R)-N-[2,4-difluoro-3-(5-{4-[4-({methyl[(1s,3s)-3-{[2-(2,6-dioxopiperidin-3-yl)-1-oxo-2,3-dihydro-1H-isoindol-5-yl]oxy}cyclobutyl]amino}methyl)piperidin-1-yl]phenyl}-1H-pyrrolo[2,3-b]pyridine-3-carbonyl)phenyl]-3-fluoropyrrolidine-1-sulfonamide], on BRAF V600E, the DC50 is 0.005 to 0.05 µM and the Dmax lay within 35 to 70%. In addition, on BRAF G466V, the DC50 lay within 0.001 to 0.01 µM and the Dmax was over 70%.

Turning to `O=C1CCN(c2ccc(N3CCC(CN4CC5(C4)CN(c4ccc(-c6cnc7[nH]cc(C(=O)c8c(F)ccc(NS(=O)(=O)N9CC[C@@H](F)C9)c8F)c7c6)cc4)C5)CC3)cc2F)C(=O)N1` [Compound 156, (3R)-N-[3-(5-{4-[6-({1-[4-(2,4-dioxo-1,3-diazinan-1-yl)-3-fluorophenyl]piperidin-4-yl}methyl)-2,6-diazaspiro[3.3]heptan-2-yl]phenyl}-1H-pyrrolo[2,3-b]pyridine-3-carbonyl)-2,4-difluorophenyl]-3-fluoropyrrolidine-1-sulfonamide], the DC50 was in the range of 0.005 to 0.05 µM on BRAF V600E and 0.001 to 0.01 µM at BRAF G466V. For the same compound, the values for the Dmax on BRAF V600E and at BRAF G466V were 35 to 70% and over 70%, respectively.

As for `O=C1CCC(N2Cc3cc(C4CCN(CC5CCN(c6ccc(-c7cnc8[nH]cc(C(=O)c9c(F)ccc(NS(=O)(=O)N%10CC[C@@H](F)C%10)c9F)c8c7)cc6)CC5)CC4)c(F)cc3C2=O)C(=O)N1` (stereo partly drawn) [Compound 157, (3R)-N-[3-(5-{4-[4-({4-[2-(2,6-dioxopiperidin-3-yl)-6-fluoro-1-oxo-2,3-dihydro-1H-isoindol-5-yl]piperidin-1-yl}methyl)piperidin-1-yl]phenyl}-1H-pyrrolo[2,3-b]pyridine-3-carbonyl)-2,4-difluorophenyl]-3-fluoropyrrolidine-1-sulfonamide], at BRAF V600E, the DC50 was 0.005 to 0.05 µM and the Dmax was in the range of 35 to 70%. Moreover, on BRAF G466V, the DC50 is 0.001 to 0.01 µM and the Dmax was over 70%.

As for `O=C1CCC(N2Cc3cc(N4CC5(CN(CCOc6ccc(-c7cnc8[nH]cc(C(=O)c9c(F)ccc(NS(=O)(=O)N%10CC[C@@H](F)C%10)c9F)c8c7)cn6)C5)C4)ccc3C2=O)C(=O)N1` (stereo partly drawn) [Compound 158, (3R)-N-(3-{5-[6-(2-{6-[2-(2,6-dioxopiperidin-3-yl)-1-oxo-2,3-dihydro-1H-isoindol-5-yl]-2,6-diazaspiro[3.3]heptan-2-yl}ethoxy)pyridin-3-yl]-1H-pyrrolo[2,3-b]pyridine-3-carbonyl}-2,4-difluorophenyl)-3-fluoropyrrolidine-1-sulfonamide], at BRAF V600E, the DC50 was 0.005 to 0.05 µM and the Dmax was 35 to 70%. Moreover, at BRAF G466V, the DC50 fell in the range of 0.001 to 0.01 µM and the Dmax is over 70%.

As to `O=C1CCC(N2Cc3cc(N4CC(C5CN(c6ccc(-c7cnc8[nH]cc(C(=O)c9c(F)ccc(NS(=O)(=O)N%10CC[C@@H](F)C%10)c9F)c8c7)cc6)C5)C4)ccc3C2=O)C(=O)N1` (stereo partly drawn) [Compound 159, (3R)-N-{3-[5-(4-{1′-[2-(2,6-dioxopiperidin-3-yl)-1-oxo-2,3-dihydro-1H-isoindol-5-yl]-[3,3′-biazetidin]-1-yl}phenyl)-1H-pyrrolo[2,3-b]pyridine-3-carbonyl]-2,4-difluorophenyl}-3-fluoropyrrolidine-1-sulfonamide], the figures for the DC50 on BRAF V600E and at BRAF G466V were over 0.5 µM and over 0.03 µM, respectively.

For `O=C1CC[C@H](N2Cc3cc(C4CCN(CC5CCN(c6ccc(-c7cnc8[nH]cc(C(=O)c9c(F)ccc(NS(=O)(=O)N%10CC[C@@H](F)C%10)c9F)c8c7)cc6)CC5)CC4)ccc3C2=O)C(=O)N1` [Compound 160, (3R)—N-[3-[5-[4-[4-[[4-[2-[(3S)-2,6-dioxo-3-piperidyl]-1-oxo-isoindolin-5-yl]-1-piperidyl]methyl]-1-piperidyl]phenyl]-1H-pyrrolo[2,3-b]pyridine-3-carbonyl]-2,4-difluoro-phenyl]-3-fluoro-pyrrolidine-1-sulfonamide], at BRAF V600E, the DC50 is under 0.005 µM and the Dmax lay within 35 to 70%. At BRAF G466V, the DC50 was under 0.001 µM and the Dmax was over 70%.

With `O=C1CC[C@@H](N2Cc3cc(C4CCN(CC5CCN(c6ccc(-c7cnc8[nH]cc(C(=O)c9c(F)ccc(NS(=O)(=O)N%10CC[C@@H](F)C%10)c9F)c8c7)cc6)CC5)CC4)ccc3C2=O)C(=O)N1` [Compound 161, (3R)-N-{3-[5-(4-{4-[(4-{2-[(3R)-2,6-dioxopiperidin-3-yl]-1-oxo-2,3-dihydro-1H-isoindol-5-yl}lpiperidin-1-yl)methyl]piperidin-1-yl}phenyl)-1H-pyrrolo[2,3-b]pyridine-3-carbonyl]-2,4-difluorophenyl}-3-fluoropyrrolidine-1-sulfonamide], at BRAF V600E, the DC50 was in the range of 0.005 to 0.05 µM and the Dmax is 35 to 70%. Besides, on BRAF G466V, the DC50 is under 0.001 µM and the Dmax was over 70%.

As to `O=C1CCC(N2Cc3cc(N4CCC(CN5CCN(C6(c7ccc(-c8cnc9[nH]cc(C(=O)c%10c(F)ccc(NS(=O)(=O)N%11CC[C@@H](F)C%11)c%10F)c9c8)cc7)CC6)CC5)CC4)ccc3C2=O)C(=O)N1` (stereo partly drawn) [Compound 162, (3R)-N-{3-[5-(4-{1-[4-({1-[2-(2,6-dioxopiperidin-3-yl)-1-oxo-2,3-dihydro-1H-isoindol-5-yl]piperidin-4-yl}methyl)piperazin-1-yl]cyclopropyl}phenyl)-1H-pyrrolo[2,3-b]pyridine-3-carbonyl]-2,4-difluorophenyl}-3-fluoropyrrolidine-1-sulfonamide], at BRAF V600E, the DC50 lay in the range of 0.05 to 0.5 µM and the Dmax is under 35%. On BRAF G466V, the DC50 was in the range of 0.001 to 0.01 µM and the Dmax was in the range of 35 to 70%.

Turning to `COc1cc(C2CCN(CC3CCN(c4ccc(-c5cnc6[nH]cc(C(=O)c7c(F)ccc(NS(=O)(=O)N8CC[C@@H](F)C8)c7F)c6c5)cc4F)CC3)CC2)cc2c1C(=O)N(C1CCC(=O)NC1=O)C2` (stereo partly drawn) [Compound 163, (3R)-N-[3-(5-{4-[4-({4-[2-(2,6-dioxopiperidin-3-yl)-7-methoxy-1-oxo-2,3-dihydro-1H-isoindol-5-yl]piperidin-1-yl}methyl)piperidin-1-yl]-3-fluorophenyl}-1H-pyrrolo [2,3-b]pyridine-3-carbonyl)-2,4-difluorophenyl]-3-fluoropyrrolidine-1-sulfonamide], on BRAF V600E, the DC50 was 0.005 to 0.05 µM and the Dmax lay in the range of 35 to 70%. Besides, at BRAF G466V, the DC50 lay in the range of 0.001 to 0.01 µM and the Dmax was over 70%.

Consider `COc1cc(C2CCN(CC3CCN(c4ccc(-c5cnc6[nH]cc(C(=O)c7c(F)ccc(NS(=O)(=O)N8CC[C@@H](F)C8)c7F)c6c5)cn4)CC3)CC2)cc2c1C(=O)N(C1CCC(=O)NC1=O)C2` (stereo partly drawn) [Compound 164, (3R)-N-[3-(5-{6-[4-({4-[2-(2,6-dioxopiperidin-3-yl)-7-methoxy-1-oxo-2,3-dihydro-1H-isoindol-5-yl]piperidin-1-yl}methyl)piperidin-1-yl]pyridin-3-yl}-1H-pyrrolo[2,3-b]pyridine-3-carbonyl)-2,4-difluorophenyl]-3-fluoropyrrolidine-1-sulfonamide], for which, at BRAF V600E, the DC50 was 0.005 to 0.05 µM and the Dmax was 35 to 70%. At BRAF G466V, the DC50 is under 0.001 µM and the Dmax was over 70%.

Turning to `O=C1CC[C@H](N2Cc3cc(OC[C@@H](O)CN4CC5(C4)CN(c4ccc(-c6cnc7[nH]cc(C(=O)c8c(F)ccc(NS(=O)(=O)N9CC[C@@H](F)C9)c8F)c7c6)cc4)C5)ccc3C2=O)C(=O)N1` [Compound 165, (3R)-N-{3-[5-(4-{6-[(2S)-3-({2-[(3S)-2,6-dioxopiperidin-3-yl]-1-oxo-2,3-dihydro-1H-isoindol-5-yl}oxy)-2-hydroxypropyl]-2,6-diazaspiro[3.3]heptan-2-yl}phenyl)-1H-pyrrolo[2,3-b]pyridine-3-carbonyl]-2,4-difluorophenyl}-3-fluoropyrrolidine-1-sulfonamide], the half-maximal degradation concentration (DC50) is 0.005 to 0.05 µM at BRAF V600E and 0.001 to 0.01 µM at BRAF G466V. Moreover, the Dmax at BRAF V600E was 35 to 70%; on BRAF G466V, over 70%.

These data come from US12180193B2, “Accelerating fibrosarcoma protein degrading compounds and associated methods of use” (Arvinas Operations, Inc., priority 2020, dated 2024).
